Laboratory results from patent publication US11267815B2, “Class of amino-substituted nitrogen-containing fused ring compounds, preparation method therefor, and use thereof” (SHANGHAI RINGENE BIOPHARMA CO., LTD., priority 2017, dated 2022).
Like-named read-outs stand apart in the source and are kept apart here.

Tests used:
[1] = molecular target: FGFR4 (Homo sapiens (Human), UniProt P22455); experiment: Inhibitory activity on kinase FGFR4 (Caliper mobility shift); assay type: biochemical; conditions: read-out: FGFR4 IC50
Procedure: (§1) (1). Preparation of 1×Kinase buffer; (2) Preparation of the gradient concentrations of the compounds: the concentration of the compounds to be tested started from 10 μM, which was 3-fold diluted to prepare 10 dilutions, and then tested in duplicated wells. The compounds were 100-fold serially diluted into 10 dilutions with different final concentrations in 96-well plates, each of which was further diluted with 1×Kinase buffer to prepare an intermediate dilution having a concentration of 5 times the final concentration; (3) adding 5 μL of each of the prepared compound solution into the compound wells of 384-well plates, and each concentration set single well; adding 5 μL of 5% DMSO into negative control wells and positive control wells respectively; (4) preparing a kinase solution having a concentration of 2.5 times the final concentration with 1×kinase buffer; (5) adding 10 μL of kinase solution at a concentration of 2.5 times the final concentration into the compound wells and the positive control wells respectively; and adding 10 μL of 1×Kinase buffer into the negative control wells; (6) centrifuging at 1000 rpm for 30 seconds, and incubating at room temperature for 10 minutes after shaking and mixing evenly; (7) preparing a mixed solution of ATP and Kinase substrate 22 having a concentration of 2.5 times the final concentration with 1×Kinase Buffer; (8) adding 10 μL of the mixed solution of ATP and substrate at a concentration of 2.5 times the final concentration to initiate the reaction; (9) Centrifuging the 384-well plates at 1000 rpm for 30 seconds, and incubating at 28° C. for corresponding time respectively after shaking and mixing; (10) adding 30 μL of stop detection solution to stop the kinase reaction, centrifuging at 1000 rpm for 30 seconds, and shaking and mixing the mixture evenly; (11) reading the conversion rate by Caliper Ezreader II. The dose-effect curve was fitted by the log (inhibitor) vs. response-variable slope of GraphPad Prism 5 with the log value of concentration as the X axis and the percentage inhibition rate as the Y axis, then the IC50 value of each compound on the enzyme activity was obtained.

[2] = molecular target: FGFR1 (Homo sapiens (Human), UniProt P11362); experiment: Inhibitory activity on kinase FGFR1 (Caliper mobility shift); assay type: biochemical; conditions: read-out: FGFR1 IC50
Procedure: as §1

[3] = test system: Hep3B cells; experiment: Hep3B cell proliferation (CellTiter-Glo, 72 hours); assay type: cell-based; conditions: read-out: Hep3B IC50
Procedure: 1. Test method: inoculating Hep3B cells (ATCC) in logarithmic growth phase at an appropriate density in a 96-well culture plate, with 100 μL per well. After overnight culture, different concentrations of compounds were added to stay for 72 hours, and menstruum control group (negative control) was set, and the incubation was performed under the condition of 5% CO2 at 37° C. Adding 10 mM compound stock solution to the cells, after the cells were incubated with the compounds for 72 hours, the effects of the compounds on cell proliferation were determined by CellTiter-Glo (Promega) method. 30 μL CTG reagent was added to each well and the resulting mixtures were placed in a 37° C. incubator for 2-4 hours. Then the plate was read by a full-wavelength microplate enzyme reader Envision at a […].
The inhibition rates (%) of the compounds on tumor cell growth were calculated by the following formula: inhibition rate (%)=(OD negative control well−OD administration well)/OD negative control well×100%. IC50 values were obtained by four parameters regression using Graphpad Prism 5 software.

Chain of FGFR4 (P22455 22-802): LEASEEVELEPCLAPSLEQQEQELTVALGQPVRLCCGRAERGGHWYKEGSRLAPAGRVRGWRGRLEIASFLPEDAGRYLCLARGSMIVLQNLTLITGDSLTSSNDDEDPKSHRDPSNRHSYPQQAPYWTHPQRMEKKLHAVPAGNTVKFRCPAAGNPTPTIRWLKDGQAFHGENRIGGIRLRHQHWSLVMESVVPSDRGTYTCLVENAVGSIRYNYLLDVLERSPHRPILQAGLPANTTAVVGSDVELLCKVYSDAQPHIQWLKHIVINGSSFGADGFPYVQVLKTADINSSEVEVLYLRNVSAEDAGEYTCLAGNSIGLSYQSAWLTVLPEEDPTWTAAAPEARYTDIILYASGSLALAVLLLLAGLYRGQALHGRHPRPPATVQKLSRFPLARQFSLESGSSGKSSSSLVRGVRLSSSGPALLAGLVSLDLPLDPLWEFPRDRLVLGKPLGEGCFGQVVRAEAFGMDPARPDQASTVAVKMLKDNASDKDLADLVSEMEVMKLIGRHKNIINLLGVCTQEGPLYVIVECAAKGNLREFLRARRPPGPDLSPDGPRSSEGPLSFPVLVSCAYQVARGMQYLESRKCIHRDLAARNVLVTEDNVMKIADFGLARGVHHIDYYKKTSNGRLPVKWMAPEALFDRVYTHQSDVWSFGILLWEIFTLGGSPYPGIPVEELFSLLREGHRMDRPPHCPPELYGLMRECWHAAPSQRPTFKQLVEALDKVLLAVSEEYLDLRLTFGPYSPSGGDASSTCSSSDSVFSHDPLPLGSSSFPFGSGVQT
Chain of FGFR1 (P11362 22-822): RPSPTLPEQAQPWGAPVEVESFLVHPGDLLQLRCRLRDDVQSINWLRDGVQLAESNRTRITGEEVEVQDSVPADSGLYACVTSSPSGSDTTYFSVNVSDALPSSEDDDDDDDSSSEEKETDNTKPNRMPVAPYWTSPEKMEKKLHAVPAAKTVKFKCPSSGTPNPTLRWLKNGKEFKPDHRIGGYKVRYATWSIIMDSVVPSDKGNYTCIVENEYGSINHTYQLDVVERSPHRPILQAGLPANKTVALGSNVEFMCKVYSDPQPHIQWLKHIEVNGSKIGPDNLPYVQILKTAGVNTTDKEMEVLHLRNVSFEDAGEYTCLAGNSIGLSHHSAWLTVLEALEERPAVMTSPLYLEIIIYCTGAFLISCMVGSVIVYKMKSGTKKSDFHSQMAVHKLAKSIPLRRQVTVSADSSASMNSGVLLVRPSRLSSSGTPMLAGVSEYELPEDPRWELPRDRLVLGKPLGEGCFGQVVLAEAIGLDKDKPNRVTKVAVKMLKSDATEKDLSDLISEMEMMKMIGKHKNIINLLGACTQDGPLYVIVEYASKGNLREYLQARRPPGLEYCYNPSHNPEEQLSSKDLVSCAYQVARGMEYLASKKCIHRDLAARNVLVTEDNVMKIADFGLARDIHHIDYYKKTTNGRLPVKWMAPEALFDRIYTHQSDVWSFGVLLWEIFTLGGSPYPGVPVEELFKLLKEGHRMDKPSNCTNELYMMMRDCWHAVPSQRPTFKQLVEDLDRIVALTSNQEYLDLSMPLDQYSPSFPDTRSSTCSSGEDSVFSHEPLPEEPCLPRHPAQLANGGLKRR

| IC50 [1] [nM] | IC50 [2] [nM] | IC50 ([3]; Homo sapiens, Hep3B) [nM] | Compound | IC50 [3] [nM] |
| --- | --- | --- | --- | --- |
| < 20 | < 20 | < 20 | C=CC(=O)N1CCN(CCCc2cn3c(n2)c(-c2c(Cl)c(OC)cc(OC)c2Cl)cc2cnc(NC)cc23)CC1 [Embodiment 5] |  |
| < 20 | < 20 | 20 to 200 | C=CC(=O)N1CCN(CCCc2cn3c(n2)c(-c2c(Cl)c(OC)cc(OC)c2Cl)cc2cnc(NCC(C)(C)O)nc23)CC1 [Embodiment 12] |  |
| < 20 | < 20 | < 20 | C=CC(=O)N1CCN(CCCc2cn3c(n2)c(-c2c(Cl)c(OC)cc(OC)c2Cl)cc2cnc(NCC4CC4)nc23)CC1 [Embodiment 4] |  |
| < 20 | < 20 | 20 to 200 | C=CC(=O)N1CCN(CCCc2cn3c(n2)c(-c2c(Cl)c(OC)cc(OC)c2Cl)cc2cnc(NCCC#N)nc23)CC1 [Embodiment 13] |  |
| < 20 | < 20 | 20 to 200 | C=CC(=O)N1CCN(CCCc2cn3c(n2)c(-c2c(Cl)c(OC)cc(OC)c2Cl)cc2cnc(NCC4CCOC4)nc23)CC1 (stereo not drawn) [Embodiment 11] |  |
| > 200 | < 20 | 20 to 200 | C=CC(=O)NCc1cccc(-c2cn3c(n2)c(-c2c(Cl)c(OC)cc(OC)c2Cl)cc2cnc(NC)nc23)c1 [Embodiment 19, N-(3-(6-(2,6-dichloro-3,5-dimethoxyphenyl)-2-(methylamino)imidazo[1′,2′:1,6]pyrido[2,3-d]pyrimidin-8-yl)benzyl)acrylamide] |  |
| 20 to 200 | < 20 | 20 to 200 | C=CC(=O)N1CCN(CC(C)(C)Cc2cn3c(n2)c(-c2c(Cl)c(OC)cc(OC)c2Cl)cc2cnc(NC)nc23)CC1 [Embodiment 15, 1-(4-(3-(6-(2,6-dichloro-3,5-dimethoxyaniline)-2-(methylamine)imidazo[1′,2′:1,6]pyrido[2,3-d]pyrimidin-8-yl)-2,2-dimethylpropyl)piperazine-1-yl)prop-2-en-1-one] |  |
| < 20 | < 20 | < 20 | C=CC(=O)N1CCN(CCCc2cn3c(n2)c(-c2c(F)c(OC)cc(OC)c2F)cc2cnc(NC)nc23)CC1 [Embodiment 1] |  |
| < 20 | < 20 | < 20 | C=CC(=O)N1CCN(CCCc2cn3c(n2)c(-c2c(F)c(OC)cc(OC)c2F)cc2cnc(NC)cc23)CC1 [Embodiment 2] |  |
| < 20 | < 20 | < 20 | C=CC(=O)N1CCN(CCCc2cn3c(n2)c(-c2c(Cl)c(OC)cc(OC)c2Cl)cc2cnc(NCCOC)nc23)CC1 [Embodiment 6, 1-(4-(3-(6-(2,6-dichloro-3,5-dimethoxyaniline)-2-((2-methoxyethyl)amino)imidazo[1′,2′:1,6]pyrido[2,3-d]pyrimidin-8-yl)propyl)piperazine-1-yl)prop-2-en-1-one] |  |
| < 20 | < 20 | < 20 | C=CC(=O)N1CCN(CCCc2cn3c(n2)c(-c2c(Cl)c(OC)cc(OC)c2Cl)cc2cnc(NCC)nc23)CC1 [Embodiment 8] |  |
| < 20 | < 20 | 20 to 200 | C=CC(=O)N1CCN(CCCc2cn3c(n2)c(-c2c(Cl)c(OC)cc(OC)c2Cl)cc2cnc(NCC(O)CO)nc23)CC1 (stereo not drawn) [Embodiment 10] |  |
| < 20 | < 20 | 20 to 200 | C=CC(=O)N1CCN(CCCc2cn3c(n2)c(-c2c(Cl)c(OC)cc(OC)c2Cl)cc2cnc(NCCN(C)C)nc23)CC1 [Embodiment 9] |  |
| < 20 | < 20 | 20 to 200 | C=CC(=O)N1CCN(CCCc2cn3c(n2)c(-c2c(Cl)c(OC)cc(OC)c2Cl)cc2cnc(NCCN4CCN(C)CC4)nc23)CC1 [Embodiment 7, 1-(4-(3-(6-(2,6-dichloro-3,5-dimethoxyaniline)-2-((2-(4-methylpiperazine-1-yl)ethylethyl)amino)imidazo[1′,2′:1,6]pyrido[2,3-d]pyrimidin-8-yl)propyl)piperazine-1-yl)prop-2-en-1-one] |  |
| > 200 | < 20 | 20 to 200 | C=CC(=O)N1CCN(Cc2cn3c(n2)c(-c2c(Cl)c(OC)cc(OC)c2Cl)cc2cnc(NC)nc23)CC1 [Embodiment 16, 1-(4-((6-(2,6-dichloro-3,5-phenyldimethoxyphenyl)-2-(methylamine)imidazo[1′,2′:1,6]pyrido[2,3-d]pyrimidin-8-yl)methyl)piperazine-1-yl)acrylamide] |  |
| 20 to 200 | < 20 | 20 to 200 | C=CC(=O)N1CCN(CCCc2cn3c(n2)c(-c2c(Cl)c(OC)cc(OC)c2Cl)cc2cnc(NC)nc23)CC1(C)C [Embodiment 14] |  |

| Compound | IC50 [1] [nM] | IC50 [2] [nM] | IC50 ([3]; Homo sapiens, Hep3B) [nM] | IC50 [3] [nM] |
| --- | --- | --- | --- | --- |
| C=CC(=O)N1CCN(c2cccc(-c3cn4c(n3)c(-c3c(Cl)c(OC)cc(OC)c3Cl)cc3cnc(NC)nc34)c2)CC1 [Embodiment 18, 1-(4-(3-(6-(2,6-dichloro-3,5-dimethoxyphenyl)-2-(methylamine)imidazo[1′,2′:1,6]pyrido[2,3-d]pyrimidin-8-yl)phenyl)piperazine-1-yl)acrylamide] | > 200 | < 20 |  | 20 to 200 |
